What follows are molecules tested against T1, human progesterone receptor-A [PRA] isoform (Homo sapiens, UniProt P06401) (assay: progesterone receptor cytosol (PR) binding assay, [3H]-progesterone competition). Details: [3H]Prog ~0.8 nM, 4 °C overnight, Cheng-Prusoff.
T1 construct: purchased Ligand Pharmaceuticals (San Diego, CA); host or cells: insect SF21 cells (baculovirus)
T1 sequence (P06401 1-769 isoform P06401-2): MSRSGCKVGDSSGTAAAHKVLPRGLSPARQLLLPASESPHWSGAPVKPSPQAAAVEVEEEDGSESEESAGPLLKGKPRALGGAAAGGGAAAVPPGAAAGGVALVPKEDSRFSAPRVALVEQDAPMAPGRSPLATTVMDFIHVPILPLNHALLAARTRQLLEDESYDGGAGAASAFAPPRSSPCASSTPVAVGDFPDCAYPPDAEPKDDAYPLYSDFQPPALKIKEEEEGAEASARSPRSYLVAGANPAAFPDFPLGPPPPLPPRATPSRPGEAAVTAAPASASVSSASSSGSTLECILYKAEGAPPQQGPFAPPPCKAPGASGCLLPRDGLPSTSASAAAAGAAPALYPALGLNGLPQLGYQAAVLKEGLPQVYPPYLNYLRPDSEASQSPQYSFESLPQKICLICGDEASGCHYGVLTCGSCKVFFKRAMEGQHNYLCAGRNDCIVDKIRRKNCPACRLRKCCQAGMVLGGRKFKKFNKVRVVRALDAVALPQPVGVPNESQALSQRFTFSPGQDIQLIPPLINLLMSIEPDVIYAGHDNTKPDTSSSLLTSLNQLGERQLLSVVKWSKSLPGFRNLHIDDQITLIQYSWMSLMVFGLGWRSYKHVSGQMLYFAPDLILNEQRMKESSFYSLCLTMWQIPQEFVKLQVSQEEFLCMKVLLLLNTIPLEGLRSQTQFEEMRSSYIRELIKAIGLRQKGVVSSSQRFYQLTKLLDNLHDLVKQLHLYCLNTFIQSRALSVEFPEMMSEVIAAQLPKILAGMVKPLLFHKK
Excerpt: For glucocorticoid receptor (OR) cytosol binding assays, the procedure described in Anal. Biochem. 1970, 37, 244-252, hereby incorporated by reference, was used. Briefly, cytosol preparations of human glucocorticoid receptor-α [GRX] isoform and human progesterone receptor-A [PRA] isoform were obtained from Ligand Pharmaceuticals (San Diego, CA). Both receptor cDNAs were cloned into baculovirus expression vectors and expressed in insect SF21 cells. [^3H]-dexamethasone (Dex, specific activity 82-86 Ci/mmole) and [^3H]-progesterone (Prog, specific activity 97-102 Ci/mmol) were purchased from Amersham Life Sciences (Arlington Heights, IL). Glass fiber type C multiscreen MAFC NOB plates were from Millipore ( Burlington, MA). Hydroxyapatide Bio-Gel HTP gel was obtained from Bio-Rad Laboratories (Hercules. CA). Tris(hydroxymethyl)aminomethane (Tris), ethylenediaminetetraacetic acid (EDTA), glycerol, dithiothreitol (DTT) and sodium moylybdate were obtained from Sigma Chemicals (St. Louis, MO). Microscint-20 scintillation fluid was obtained from Packard Instrument (Meriden, CT).
Stock solutions (32 mM) of compounds were prepared in dimethylsulfoxide (DMSO), and 50X solutions of test compounds were prepared from the 32 mM solution with a 50:50 mixture of DMSO/ethanol. The 50X solution was then diluted with binding buffer that contained 10 mM Tri-HCl, 1.5 mM EDTA, 10% glycerol, 1 mM DTT, 20 mM sodium molybdate. pH 7.5 at 4 °C. 1% DMSO/ethanol was also present in the binding assay.
For progesterone receptor cytosol (PR) binding assays, [^3H]Prog (~36,000 dpm (∼0.8 nM)), PRA cytosol (~40 µg protein), test compounds and binding buffer were mixed in a total volume of 200 µL and incubated at 4 °C overnight in a plate shaker. Specific binding was defined as the difference between binding of [^3H]Prog in the absence and in the presence of 3 µM unlabeled Prog.
After an overnight incubation, 50 µL of hydroxyapatite (25 % weight/volume) slurry were added to each well and plates were incubated for 10 min at 4 °C in a plate shaker. Plates were suctioned with a Millipore vacuum manifold and each well was rinsed with 300 µL of ice-cold binding buffer. A 250 µL aliquot of Packard Microscint-20 was added to each well and the wells were shaken at room temperature for 20 minutes. The amount of radioactivity was determined with a Packard TopCount plate reader.
The Ki of test compounds was determined using the Cheng-Prusoff equation Ki =IC50/(1+[L*]/[KL]) where L* is the concentration of radioligand and KL is the dissociation constant of the radioligand determined from saturation analysis. For GRX, KL was ∼1.5 nM, and for PRA, KL was ~4.5 nM.

Row | SMILES | Ki
1 | CN(C)c1ccc(C(Sc2ccccc2)c2cc([N+](=O)[O-])ccc2Cl)cc1 (stereo not shown) [Example 54, phenyl-[(4'-dimethylaminophenyl)-(2-chloro-5-nitrophenyl)methyl]thioether] | 2590 nM
2 | CNc1ccc(C(c2ccc(N(C)C)cc2)c2cc([N+](=O)[O-])ccc2Cl)cc1 (stereo not shown) [Example 39, 4'-dimethylamino-4"-methylamino-2-chloro-5-nitrotriphenylmethane] | 510 nM
3 | CN(C)c1ccc(C(c2ccc(N(C)C)cc2)c2cc([N+](=O)[O-])ccc2Cl)cc1 [Example 1, 4',4" bis(dimethylamino)-2-chloro-5-nitrotriphenylmethane] | > 10000 nM
4 | O=[N+]([O-])c1ccc(Cl)c(C(c2ccc(NCc3ccccc3)cc2)c2ccc(NCc3ccccc3)cc2)c1 [Example 36, 4',4" bis(N-benzylamino)-2-chloro-5-nitrotriphenylmethane] | 2590 nM
5 | CN(CCO)c1ccc(C(c2ccc(N(C)CCO)cc2)c2cc([N+](=O)[O-])ccc2Cl)cc1 [Example 32, 4',4" bis(N-(2-hydroxyethyl) N-methylamino)-2-chloro-5-nitrotriphenylmethane] | 536 nM
6 | CC(=O)OCCN(C)c1ccc(C(c2ccc(N(C)C)cc2)c2cc([N+](=O)[O-])ccc2Cl)cc1 (stereo not shown) [Example 51, 4'-dimethylamino-4"-(N-methyl-N-(2-acetoxyethyl)amino)-2-chloro-5-nitrotriphenylmethane] | 1080 nM
7 | CNc1ccc(C(c2ccc(NC)cc2)c2cc(Cl)ccc2Cl)cc1 [Example 27, 4',4" bis(methylamino)-2,5-dichlorotriphenylmethane] | 318 nM
8 | CN(C)c1ccc(C(c2ccc(N(C)C)cc2)c2cc(Cl)ccc2Cl)cc1 [Example 24, 4',4" bis(dimethylamino)-2,5-dichlorotriphenylmethane] | 2590 nM
9 | CNc1ccc(C(c2ccc(N(C)CCOC(C)=O)cc2)c2cc([N+](=O)[O-])ccc2Cl)cc1 (stereo not shown) [Example 49, 4'-methylamino-4"-(N-(2-acetoxyethyl)-N-methylamino)-2-chloro-5-nitrotriphenylmethane] | 241 nM
10 | CNc1ccc(C(c2ccc(NC)cc2)c2cc([N+](=O)[O-])ccc2Cl)cc1 [Example 23, 4',4" bis(methylamino)-2-chloro-5-nitrotriphenylmethane] | 624 nM
11 | CN(C)c1ccc(C(Oc2ccccc2)c2cc([N+](=O)[O-])ccc2Cl)cc1 (stereo not shown) [Example 52, phenyl-[(4'-dimethylaminophenyl)-(2-chloro-5-nitrophenyl)methyl] ether] | 698 nM
12 | CN(C)c1ccc(C(c2ccc(N(C)CCO)cc2)c2cc([N+](=O)[O-])ccc2Cl)cc1 (stereo not shown) [Example 42, 4'-dimethylamino-4"-(N-methyl-N-(2-hydroxyethyl)amino)-2-chloro-5-nitrotriphenylmethane] | 187 nM
13 | CC(=O)OCCN(C)c1ccc(C(c2ccc(N(C)CCOC(C)=O)cc2)c2cc([N+](=O)[O-])ccc2Cl)cc1 [Example 31, 4',4" bis(N-(2-acetoxyethyl) N-methylamino)-2-chloro-5-nitrotriphenylmethane] | 2680 nM

From EP1100483B1, “GLUCOCORTICOID-SELECTIVE ANTI-INFLAMMATORY AGENTS” (Abbott Laboratories, priority 1998, dated 2000)
